Laboratory results: ChEMBL document CHEMBL1201862, “PubChem BioAssay data set” (2004)
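Dose response: 5 concentrations. Exposure: 48 h. Format: 96-well plates. Endpoint: linear interpolation; highest concentration if not reached. GI50 marks 50% less growth.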 Activity calls are given as the source filed them. Rule as the data show it: active = GI50 up to about 1.1 µM and inactive = higher.

Assays:
Test in all cases: NCI anticancer screen, dose series, 48 h
[1] = system: M14
[2] = system: HCC 2998
[3] = system: EKVX
[4] = system: COLO 205
[5] = system: CCRF-CEM
[6] = system: OVCAR-3
[7] = system: SF-295
[8] = system: ACHN
[9] = system: A549
[10] = system: 786-0
[11] = system: SK-MEL-5
[12] = system: UACC-62
[13] = system: LXFL 529
[14] = system: HL-60
[15] = system: OVCAR-5
[16] = system: SR
[17] = system: HT-29
[18] = system: KM12
[19] = system: UACC-257

Row | Compound | GI50 [1] | GI50 [2] | GI50 [3] | GI50 [4] | GI50 [5] | GI50 [6] | GI50 [7] | GI50 [8] | GI50 [9] | GI50 [10] | GI50 [11] | GI50 [12] | GI50 [13] | GI50 [14] | GI50 [15] | GI50 [16] | GI50 [17] | GI50 [18] | GI50 [19]
1 | C/C(=N\N=C(\N)S)c1ccc(Oc2ccccc2)cc1 | 9.98 µM (inactive) | 7.93 µM (inactive) | 12.2 µM (inactive) | 8.36 µM (inactive) | 5.04 µM (inactive) | 10.1 µM (inactive) | 8.07 µM (inactive) | 10.3 µM (inactive) | 18.7 µM (inactive) | 4.05 µM (inactive) | 5.12 µM (inactive) | 10.6 µM (inactive) | 3.96 µM (inactive) | 4.06 µM (inactive) |  |  |  |  | 
2 | [O-][S+]1c2ccccc2N=C(c2ccc3ccccc3c2)CC1c1ccccc1 (stereo unspecified) | 47.2 µM (inactive) | 21.9 µM (inactive) | 25.1 µM (inactive) | 19.1 µM (inactive) | 31.8 µM (inactive) |  | 19.9 µM (inactive) | 16.4 µM (inactive) | 21.3 µM (inactive) |  | 27.7 µM (inactive) | 36.6 µM (inactive) | 16.1 µM (inactive) | 25.9 µM (inactive) | 21.5 µM (inactive) | 17.9 µM (inactive) | 17.4 µM (inactive) | 13.9 µM (inactive) | 28.1 µM (inactive)
3 | Cc1ccc2nc(NC(=O)C(=O)CC(=O)c3cccc4ccccc34)sc2c1 | 19.6 µM (inactive) | 39.2 µM (inactive) | 92 µM (inactive) | 60.4 µM (inactive) | 30.8 µM (inactive) | 19.9 µM (inactive) | 19.9 µM (inactive) | 41.9 µM (inactive) | 33.6 µM (inactive) | 20.2 µM (inactive) | 23.1 µM (inactive) | 25.6 µM (inactive) | 45.6 µM (inactive) | > 100 µM (inactive) | > 100 µM (inactive) |  | 36 µM (inactive) | 29.1 µM (inactive) | 27.2 µM (inactive)
4 | O=C1CCC(=O)C12CCc1cccc(O)c12 | > 100 µM (inactive) | > 100 µM (inactive) | > 100 µM (inactive) | > 100 µM (inactive) |  | > 100 µM (inactive) | > 100 µM (inactive) | > 100 µM (inactive) | > 100 µM (inactive) | > 100 µM (inactive) |  | > 100 µM (inactive) | > 100 µM (inactive) | > 100 µM (inactive) |  |  | > 100 µM (inactive) |  | 
5 | CCCOC(=O)C1CCC(=O)N1C(=O)C(C)Cl (stereo unspecified) | > 100 µM (inactive) | > 100 µM (inactive) | > 100 µM (inactive) | > 100 µM (inactive) | > 100 µM (inactive) | > 100 µM (inactive) | > 100 µM (inactive) | > 100 µM (inactive) | > 100 µM (inactive) | > 100 µM (inactive) | > 100 µM (inactive) | > 100 µM (inactive) | > 100 µM (inactive) | > 100 µM (inactive) | > 100 µM (inactive) |  | > 100 µM (inactive) | > 100 µM (inactive) | > 100 µM (inactive)
6 | O=C(O)CNCc1c2ccccc2[n+]([O-])c2ccccc12 | > 100 µM (inactive) | 21.7 µM (inactive) | > 100 µM (inactive) | > 100 µM (inactive) | 34.3 µM (inactive) | > 100 µM (inactive) | > 100 µM (inactive) | 57.4 µM (inactive) | > 100 µM (inactive) | 58.2 µM (inactive) | 48.1 µM (inactive) | 58.1 µM (inactive) | 27.7 µM (inactive) | 33.5 µM (inactive) | > 100 µM (inactive) |  | 57.1 µM (inactive) | 51.1 µM (inactive) | > 100 µM (inactive)
7 | CC1CN1P1(N2CC2C)=NP(N2CC2C)(N2CC2C)=NP(N2CC2C)(N2CC2C)=N1 (stereo unspecified) | > 50 µM (inactive) | > 50 µM (inactive) | > 50 µM (inactive) | > 50 µM (inactive) | > 50 µM (inactive) | > 50 µM (inactive) | > 50 µM (inactive) | > 50 µM (inactive) | > 50 µM (inactive) | > 50 µM (inactive) | > 50 µM (inactive) |  | > 50 µM (inactive) | > 50 µM (inactive) |  | > 50 µM (inactive) | > 50 µM (inactive) |  | 
8 | COc1ccc(OC)c(NC(=O)C2=C(C)NC(C)=C(C(=O)Nc3cc(OC)ccc3OC)C2c2ccco2)c1 | > 100 µM (inactive) |  | > 100 µM (inactive) | > 100 µM (inactive) | > 100 µM (inactive) | > 100 µM (inactive) |  | > 100 µM (inactive) | > 100 µM (inactive) | > 100 µM (inactive) | 51.3 µM (inactive) | > 100 µM (inactive) | > 100 µM (inactive) |  | > 100 µM (inactive) | 64.6 µM (inactive) | > 100 µM (inactive) | > 100 µM (inactive) | 
9 | COc1ccc(OC)c(/C=C2\CCc3ccccc3C2=O)c1 | 3.59 µM (inactive) | 2 µM (inactive) | 3.2 µM (inactive) | 3.18 µM (inactive) | 2.33 µM (inactive) | 2.71 µM (inactive) | 3.35 µM (inactive) | 7.26 µM (inactive) | 2.25 µM (inactive) | 3.03 µM (inactive) | 3.17 µM (inactive) | 1.76 µM (inactive) | 6.05 µM (inactive) | 1.68 µM (inactive) | 4.14 µM (inactive) |  | 0.735 µM (active) | 3.05 µM (inactive) | 
10 | C/C=C(\C)C(=O)N1c2ccccc2CC1c1c(C)[nH]c2ccccc12 (stereo unspecified) | 39.3 µM (inactive) | > 100 µM (inactive) | 71.1 µM (inactive) | 23.3 µM (inactive) | 42.5 µM (inactive) | 21.5 µM (inactive) | 40 µM (inactive) | 55.8 µM (inactive) | > 100 µM (inactive) | > 100 µM (inactive) | > 10 µM (inactive) | 40.7 µM (inactive) | 72.9 µM (inactive) | 15.1 µM (inactive) | 37.3 µM (inactive) | > 100 µM (inactive) | 38.4 µM (inactive) | 26.7 µM (inactive) | 25.2 µM (inactive)
11 | CCOC(=O)c1c[nH]c2c(ccc3ncccc32)c1=O | > 100 µM (inactive) | > 100 µM (inactive) | > 100 µM (inactive) | > 100 µM (inactive) | > 100 µM (inactive) | > 100 µM (inactive) |  | > 100 µM (inactive) | > 100 µM (inactive) | > 100 µM (inactive) | > 100 µM (inactive) | > 100 µM (inactive) | > 100 µM (inactive) | > 100 µM (inactive) | > 100 µM (inactive) | > 100 µM (inactive) | > 100 µM (inactive) | > 100 µM (inactive) | > 100 µM (inactive)
12 | COc1ccc(/C(Cl)=C/c2cc(OC)ccc2OC)cc1 | 63.8 µM (inactive) | 87.5 µM (inactive) | > 100 µM (inactive) | > 100 µM (inactive) | 31.8 µM (inactive) |  | 51.4 µM (inactive) | 65.8 µM (inactive) | 75.2 µM (inactive) | 81.8 µM (inactive) | 64.7 µM (inactive) | 38.4 µM (inactive) | 72.1 µM (inactive) | 28.4 µM (inactive) |  | 30.6 µM (inactive) | 62.2 µM (inactive) |  | > 100 µM (inactive)
13 | COc1cc2c3c(c1OCc1ccccc1)NCCC3NCC2 (stereo unspecified) | > 100 µM (inactive) | > 100 µM (inactive) | > 100 µM (inactive) | > 100 µM (inactive) | > 100 µM (inactive) | > 100 µM (inactive) | > 100 µM (inactive) |  | > 100 µM (inactive) | > 100 µM (inactive) | > 100 µM (inactive) | > 100 µM (inactive) | > 100 µM (inactive) | > 100 µM (inactive) | > 100 µM (inactive) | > 100 µM (inactive) | > 100 µM (inactive) | > 100 µM (inactive) | > 100 µM (inactive)
14 | CCCCN(CCCC)CC(C(=O)Nc1ccc([N+](=O)[O-])cc1[N+](=O)[O-])/C(C)=N\NC(=S)NN (stereo unspecified) | > 100 µM (inactive) | > 100 µM (inactive) | 65.6 µM (inactive) | > 100 µM (inactive) | 49.4 µM (inactive) | 84.3 µM (inactive) | > 100 µM (inactive) | 56.6 µM (inactive) | > 100 µM (inactive) | > 100 µM (inactive) | > 100 µM (inactive) | > 100 µM (inactive) | > 100 µM (inactive) | 46 µM (inactive) | > 100 µM (inactive) |  | > 100 µM (inactive) | > 100 µM (inactive) | > 100 µM (inactive)
15 | COC(=O)CC(C(C(=O)OC)C(=O)OC)N1C(=O)OC(c2ccccc2)C1c1ccccc1 (stereo unspecified) | > 100 µM (inactive) | 34 µM (inactive) | > 100 µM (inactive) | 86.9 µM (inactive) | 63.1 µM (inactive) | > 100 µM (inactive) | > 100 µM (inactive) | > 100 µM (inactive) | > 100 µM (inactive) | > 100 µM (inactive) | > 100 µM (inactive) | > 100 µM (inactive) | > 100 µM (inactive) | 37 µM (inactive) | > 100 µM (inactive) |  | > 100 µM (inactive) | > 100 µM (inactive) | > 100 µM (inactive)
16 | Cc1c(O)c(=O)ccn1CCN | > 100 µM (inactive) | > 100 µM (inactive) | > 100 µM (inactive) | > 100 µM (inactive) | > 100 µM (inactive) |  |  | > 100 µM (inactive) | > 100 µM (inactive) | > 100 µM (inactive) |  | > 100 µM (inactive) | > 100 µM (inactive) |  | > 100 µM (inactive) |  | > 100 µM (inactive) | > 100 µM (inactive) | > 100 µM (inactive)
